Experiment [1] deals with proteasomes purified from MIN and MON LCL's. In words: Enzyme assays of proteasomes purified from LCL's (Suc-LLVY-AMC, Boc-LRR-AMC, Ac-YVAD-AMC). The experiment is classed as biochemical, human. The method, then:
Cells (5×10^7) were washed in cold PBS and resuspended in buffer containing 50 mM Tris-HCl pH 7.5, 5 mM MgCl2, 1 mM dithiothreitol (DTT, Sigma), 2 mM ATP, 250 mM sucrose. Glass beads equivalent to the volume of the cellular suspension were added and cells were vortexed for 1 min at 4° C. Beads and cell debris were removed by 5 minutes centrifugation at 1000×g, followed by 20 minutes centrifugation at 10,000×g. Supernatants were ultracentrifuged for 1 hour at 100,000×g^44. Supernatants were loaded into an affinity column containing an agarose matrix derivatised with the MCP21 mAb specific for the α2 subunit of the proteasome (Affinity, Exeter, UK). […] Protein concentration was determined using BCA protocol (Pierce Chemical).
The fluorogenic substrates Suc-LLVY-AMC, Boc-LRR-AMC and Ac-YVAD-AMC were used to measure chymotrypsin-like, trypsin-like and post-acidic proteasome activities, respectively. […] Fluorescence was determined by a fluorimeter (Spectrafluor plus, Tecan, Salzburg, Austria) using an excitation of 360 nm and emission of 465 nm. Proteasome activity is expressed in arbitrary fluorescence units^11.
To investigate whether the differences in subunit composition detected by Western blot analysis correlated with differences in enzymatic activity, we analysed the cleavage specificity of equal amount of proteasomes isolated from MIN-Tat and MON-Tat cells or control cells. […]

In another experiment the test system is LMP2. Put plainly: LMP2 expression in splenocytes of mice treated i.m. with Tat (Western blot). In kind it is in vivo. Conditions: Balb/c mice, 1 μg i.m., 3 consecutive treatments. An excerpt: Equal amounts of proteins were loaded on a 12% SDS-PAGE gel and electroblotted onto Protran nitrocellulose membranes (Schleicher & Schuell, Keene, Hampshire, USA). The blots were probed with antibodies specific for α2, LMP2, LMP7, MECL1, and PA28α subunits (Affinity, Exeter, UK) and developed by enhanced chemiluminescence (ECL, Amersham Pharmacia Biotech, Uppsala, SW).
Animal use was according to national and institutional guidelines. Seven-to-eight week old female Balb/c mice (Nossan, Milan, Italy) were injected with native monomeric biologically active Tat protein (1 μg) resuspended in degassed sterile PBS. Control mice were injected with oxidised Tat (1 μg) or with PBS alone. Samples (100 μl) were given by intramuscular (i.m.) injections in the quadriceps muscles of the posterior legs. Each experimental group consisted of three mice, and the experiment was repeated twice. Mice were boosted at days 11 and 20 after the first injection. Seven days after the last injection, animals were anaesthetised intraperitoneally (i.p.) with 100 μl of isotonic solution containing 1 mg of Inoketan (Virbac, Milan, Italy), and 200 μg Rompun (Bayer, Milan, Italy) and sacrificed to collect spleens. Mononuclear cells from individual spleens were purified using cells strainers, resuspended in PBS containing 20 mM EDTA, and treated with a red blood cells lysis buffer for 4 minutes at room temperature. […]

Experiment [2] deals with proteasome subunits (α2, LMP2, LMP7, MECL1) in Jurkat cells. Put plainly: Western blot of proteasome subunits in Jurkat cells expressing or treated with Tat, Tat mutants or Tat peptides. In kind it is cell-based, human. The method, then: Jurkat T cells expressing Tat or mutated Tat (referred to as Tat22, wherein a Cys at position 22 is mutated) have previously been described (1). Cells were cultured in a medium supplemented with 800 μg/ml neomycin (Sigma, St. Louise, […].).
(§1) Cells were lysed with glass beads as previously described (4). Supernatants were ultracentrifuged for 1 h at 100,000 g and loaded into an affinity column containing a matrix derivatised with the MCP21 mAb specific for the α2 subunit of the proteasome (Affinity, Exeter, UK). Proteasomes were eluted with 25 mM Tris-HCl pH 7.5 containing 2 M NaCl, and 0.5 ml fractions were collected. Homogeneity of the eluted material was confirmed by analysis of an aliquot by SDS 12% PAGE and Coomassie blue staining of the gel. Fractions containing proteasomes were combined and dialysed against 25 mM Tris-HCl pH 7.5. Protein concentration was determined using the BCA method (Pierce Chemical, Rockford, Ill.).
Equal amounts of proteins, or equal amounts of purified proteasomes, were loaded on a 12% SDS-PAGE and electro-blotted onto Protran nitrocellulose membranes (Schleicher & Schuell, Keene, Hampshire, USA). Blots were probed with Abs specific for α2, LMP2 LMP7, MECL1, and PA28α subunits (Affinity), and developed by enhanced chemi-luminescence (ECL, Amersham Pharmacia Biotech, Uppsala, SW).

The test system of experiment [3] is proteasomes purified from Jurkat cells. Put plainly: Enzymatic assays of proteasomes purified from Jurkat cells treated with Tat. Conditions: proteasomes from Jurkat cells treated for 24 h with 1 μg/ml Tat protein vs control cells. In kind it is biochemical, human. How it is done: as §1
The chymotrypsin-like, trypsin-like and post-acidic activities of purified proteasomes were tested using the fluorogenic substrates Suc-LLVY-AMC, Boc-LRR-AMC and Ac-YVAD-AMC, respectively, as previously described (4). Fluorescence was determined by a fluorimeter (Spectrafluor plus, Tecan, Salzburg, Austria). Proteasome activity is expressed as arbitrary fluorescence units.
To investigate whether the differences in subunit composition correlated with differences in enzymatic activity, we analysed the cleavage specificity of equal amounts of proteasomes purified from Jurkat cells treated for 24 h with 1 μg/ml Tat protein or from control cells. […]

The subject of experiment [4] is MIN and MON LCL's (EBV IVT, AVF, YLQ, CLG epitopes). Put plainly: Cytotoxicity assay of EBV epitope-specific CTLs against LCL targets.
Method: HLA A11-restricted EBV-specific CTL cultures reacting against the EBNA4-derived [sequence] (SEQ ID NO 280) (IVT) and [sequence] […] (SEQ ID NO 282) (CLG) epitope, corresponding to amino acid 426-434^28, and the Lmp1-derived [sequence] […] The first stimulation was performed in RPMI 1640 medium containing 10% FCS. A second and a third stimulation were performed in the same conditions on day 7 and day 14. Starting from day 8 the medium was supplemented with 10 U/ml rIL-2 (Chiron, Milan, Italy).
Target cells were labelled with Na2^51CrO4 for 90 min at 37° C. Cytotoxicity tests were routinely run at different effector: target ratios in triplicate. Percent specific lysis was calculated as 100×(cpm sample−cpm medium)/(cpm Triton X-100−cpm medium)^27. Spontaneous release was always less than 20%.
To this purpose, the HLA-2 and -A11 positive MIN LCL and the HLA-A2 positive MON LCL, transduced or not with Tat, were tested as target in cytotoxic assays using CTL cultures specific for the IVT, AVF, CLG and YLQ epitopes (FIG. 6).
[5] abbreviates: endogenous expression of Tat in Jurkat cells.
The mark [6] stands for this setting: LCL expressing endogenous Tat vs empty vector.
Where [7] appears, read: MIN LCL treated with 0.1 μg/ml Tat protein for 24 hours vs untreated.

In the case of “Tat: HIV-1 Tat protein from HTLV type IIIB isolate, expressed in E. Coli or endogenously in cells; wild type SEQ ID NO 284”, in experiment [1] (proteasomes from MIN and MON LCL's treated with 0.1 μg/ml of Tat (data not shown)), the “three proteolytic activities of proteasomes” value is reported as “increase of all three proteolytic activities”. Also, the “chymotryptic-like, tryptic-like and post-acidic activities of proteasomes” value in experiment [1] (proteasomes from MIN-Tat and MON-Tat cells vs control cells) was “higher”. Moreover, the “LMP2 expression in splenocytes” value in the experiment with LMP2 is listed as “down-regulation”. In addition, the “LMP2 expression in total cell lysates” value in experiment [2] (Jurkat cells treated for 24 h with 0.1 μg/ml) is recorded as “induced down-regulation”. Moreover, the “expression of LMP2 subunit from purified proteasomes” value in experiment [2] (Jurkat cells, exogenous native Tat, 24 h, 0.1-1 μg/ml) is given as “maximal down-modulation”. Besides, in experiment [2] (setting [5]), the “expression of LMP2” value is on record as “down-regulation”, the “expression of LMP7” value was “up-regulation” and the “expression of MECL1” value is recorded as “up-regulation”. The “chymotryptic-like, tryptic-like and post-acidic activities” value in experiment [3] is listed as “all augmented”. In experiment [4] (setting [6]), the “IVT- and AVF-specific CTL killing” value is recorded as “decrease”; the “YLQ- and CLG-specific killing” value was “increase”. In addition, in experiment [4] (setting [7]), the “lysis by YLQ- and CLG-specific CTLs” value is “lysed at higher efficiency”; the “sensitivity to IVT- and AVF-specific CTL killing” value is “less sensitive”.

(Values after patent US20090252754A1, “Vaccines containing the hiv tat protein as an adjuvant for the enhancement of cytotoxic t-cell responses” (priority 2003, published 2009).)
